Read-outs that look alike come from different tables or passages of the source.
Experiments:
[1] = target: T1, PfDHODH (Plasmodium falciparum, UniProt Q08210); experiment: biochemical
T1 sequence (Q08210 24-569): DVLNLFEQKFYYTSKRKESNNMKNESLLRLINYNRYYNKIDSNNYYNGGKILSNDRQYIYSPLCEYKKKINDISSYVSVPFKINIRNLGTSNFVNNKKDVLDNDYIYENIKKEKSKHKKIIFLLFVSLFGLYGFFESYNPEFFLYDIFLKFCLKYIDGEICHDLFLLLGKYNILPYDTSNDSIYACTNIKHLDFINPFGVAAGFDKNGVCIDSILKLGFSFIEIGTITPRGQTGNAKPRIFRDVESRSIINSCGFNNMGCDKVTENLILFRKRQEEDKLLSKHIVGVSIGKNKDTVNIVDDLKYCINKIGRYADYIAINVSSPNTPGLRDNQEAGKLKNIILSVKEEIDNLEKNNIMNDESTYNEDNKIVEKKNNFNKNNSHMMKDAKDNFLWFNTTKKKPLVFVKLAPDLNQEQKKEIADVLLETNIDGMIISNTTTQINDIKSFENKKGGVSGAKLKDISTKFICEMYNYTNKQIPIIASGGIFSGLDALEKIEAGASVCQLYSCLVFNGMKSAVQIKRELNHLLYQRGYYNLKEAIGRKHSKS
Experimental: (§1) Briefly, the assay solution contained 100 mM HEPES, pH 8.0, 150 mM NaCl, 10% glycerol, 0.1% Triton X-100, 20 micro molar COQD (coenzyme QD), 200 micro molar L-dihydroorotate, and 120 micro molar DCIP. Reactions are initiated by addition of enzyme to a final concentration in the range of about […] to about 50 nM while maintaining the temperature of a circulating water bath at 25° C.
(§2) Assay solutions were prepared as discussed above, except that DCIP is not present and the solution is depleted of oxygen by the inclusion of an oxidase/reductase system, such as, 0.1 mg/ml of glucose oxidase, 0.02 mg/ml catalase and 50 mM glucose. The data obtained is fitted to equation 1, to determine the IC50 values of the representative compounds.

[2] = target: PbDHODH (Plasmodium berghei, UniProt A0A509AEH5); experiment: DHODH enzyme inhibition assay, PbDHODH; format: biochemical, P. berghei; details: Table 4, IC50 class
PbDHODH, sequence (A0A509AEH5 entry or part of it): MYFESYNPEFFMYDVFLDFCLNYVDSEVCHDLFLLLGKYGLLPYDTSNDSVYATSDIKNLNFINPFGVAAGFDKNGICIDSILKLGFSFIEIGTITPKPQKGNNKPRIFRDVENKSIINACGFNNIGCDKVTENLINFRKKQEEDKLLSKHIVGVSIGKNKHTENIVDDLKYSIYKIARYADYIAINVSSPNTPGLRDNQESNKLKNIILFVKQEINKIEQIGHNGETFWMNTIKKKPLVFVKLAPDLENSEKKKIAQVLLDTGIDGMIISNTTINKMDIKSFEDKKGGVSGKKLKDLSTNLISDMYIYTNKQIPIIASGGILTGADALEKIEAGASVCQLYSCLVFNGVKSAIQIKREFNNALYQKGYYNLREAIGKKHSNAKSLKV
Experimental: as §1, §2

[3] = target: hDHODH (Homo sapiens, UniProt Q02127); experiment: DHODH enzyme inhibition assay, hDHODH; format: biochemical; details: Table 4, IC50 class; read-out: hDHODH
hDHODH, sequence (Q02127 whole entry): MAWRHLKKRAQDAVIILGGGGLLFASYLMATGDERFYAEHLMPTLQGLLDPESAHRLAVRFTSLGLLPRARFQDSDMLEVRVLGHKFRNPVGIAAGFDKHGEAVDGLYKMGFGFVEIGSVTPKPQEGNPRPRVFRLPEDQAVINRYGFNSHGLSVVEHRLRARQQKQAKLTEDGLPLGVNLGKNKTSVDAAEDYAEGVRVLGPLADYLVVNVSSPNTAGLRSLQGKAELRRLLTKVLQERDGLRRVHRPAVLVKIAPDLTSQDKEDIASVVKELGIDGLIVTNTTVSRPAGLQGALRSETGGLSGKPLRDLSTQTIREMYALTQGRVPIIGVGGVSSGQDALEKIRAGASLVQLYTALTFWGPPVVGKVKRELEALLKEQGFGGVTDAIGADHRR
Experimental: as §1, §2

[4] = Table 4, IC50 class, read-out: PfDHODH
[5] = Table 5, read-out: PfDHODH IC50

Row | Structure (SMILES) | IC50 [1, 4] [nM] | IC50 ([2]; PbDHODH) [nM] | IC50 [1, 5] [nM] | other results
1 | Cc1cc(Nc2cccc(Cl)c2)n2ncnc2n1 [drawing 116] | – | – | – | IC50 ([1]; PfDHODH IC50, Table 5): 566 nM
2 | Cc1cc(Nc2ccccc2C#N)n2ncnc2n1 | > 10000 | > 10000 | – | –
3 | COc1ccc(Nc2cc(C)nc3nc(C)nn23)cc1Cl [drawing 99] | – | – | 326 | –
4 | Cc1cc(Nc2ccc(N3CCOCC3)cc2)n2ncnc2n1 | – | – | > 100000 | –
5 | Cc1cc(Nc2ccc(Cl)cc2)n2ncnc2n1 | < 2000 | – | – | IC50 [3]: > 10000 nM; IC50 ([2]; read-out: PbDHODH): 2000 to 10000 nM
6 | Cc1cc(Nc2c(F)c(F)c(F)c(F)c2F)n2ncnc2n1 | > 10000 | > 10000 | – | –
7 | Cc1cc(Nc2ccc(OCc3ccccc3)cc2)n2ncnc2n1 | – | – | 6300 ± 950 | –
8 | Cc1cc(Nc2c(F)c(F)cc(F)c2F)n2ncnc2n1 | > 10000 | > 10000 | – | –
9 | Cc1cc(Nc2ccc(F)c(F)c2)n2ncnc2n1 | 2000 to 10000 | 2000 to 10000 | – | –
10 | Cc1cc(Nc2cccc(C(F)(F)F)c2)n2nc(C)nc2n1 | – | – | 285 | –
11 | Cc1cc(Nc2ccc(Cc3ccccc3)cc2)n2ncnc2n1 | < 2000 | – | – | IC50 [3]: 2000 to 10000 nM; IC50 ([2]; read-out: PbDHODH): > 10000 nM
12 | Cc1cc(Nc2c(F)cccc2F)n2ncnc2n1 | > 10000 | > 10000 | – | –
13 | Cc1cc(Nc2ccc(C(C)C)cc2)n2ncnc2n1 | < 2000 | < 2000 | – | IC50 [3]: > 10000 nM
14 | Cc1cc(Nc2c(F)cc(F)cc2F)n2ncnc2n1 | > 10000 | – | – | IC50 [3]: > 10000 nM; IC50 ([2]; read-out: PbDHODH): > 10000 nM
15 | Cc1cccc(Nc2cc(C)nc3ncnn23)c1 | 2000 to 10000 | > 10000 | – | –
16 | CCCCCCCCc1ccc(Nc2cc(C)nc3ncnn23)cc1 | > 10000 | > 10000 | – | –
17 | CCc1cccc(Nc2cc(C)nc3ncnn23)c1 | – | – | 641 | –
18 | CCCc1ccc(Nc2cc(C)nc3ncnn23)cc1 | < 2000 | 2000 to 10000 | – | IC50 [3]: > 10000 nM
19 | Cc1cc(Nc2ccc(C)c(F)c2)n2ncnc2n1 | < 2000 | – | – | IC50 [3]: > 10000 nM; IC50 ([2]; read-out: PbDHODH): 2000 to 10000 nM
20 | Cc1cc(NCCCc2ccccc2)n2ncnc2n1 | > 10000 | – | – | IC50 [3]: > 10000 nM; IC50 ([2]; read-out: PbDHODH): > 10000 nM
21 | CCc1nc2nc(C)cc(Nc3ccc(F)c(Cl)c3)n2n1 | – | – | 145 | –
22 | Cc1cc(Nc2ccc(Br)c(C(F)(F)F)c2)n2ncnc2n1 | < 2000 | – | – | IC50 [3]: > 10000 nM; IC50 ([2]; read-out: PbDHODH): < 2000 nM
23 | Cc1cc(Nc2ccc(OC(F)F)cc2)n2ncnc2n1 [drawing 44] | < 2000 | > 10000 | – | –
24 | CCCCc1ccc(Nc2cc(C)nc3ncnn23)cc1 | < 2000 | 2000 to 10000 | – | IC50 [3]: > 10000 nM

Row | Structure (SMILES) | IC50 [1, 4] [nM] | IC50 ([2]; PbDHODH) [nM] | IC50 [1, 5] [nM] | other results
25 | C#Cc1ccc(Nc2cc(C)nc3ncnn23)cc1 | – | – | 990 ± 180 | –
26 | CCc1nc2nc(C)cc(Nc3ccc(OC)cc3)n2n1 | – | – | 2250 | –
27 | COc1ccc(Nc2cc(C)nc3nc(C)nn23)cc1Cl [drawing 98] | – | – | 375 | –
28 | Cc1cc(Nc2ccc(C(F)(F)F)c(F)c2)n2ncnc2n1 | < 2000 | – | – | IC50 [3]: > 10000 nM; IC50 ([2]; read-out: PbDHODH): < 2000 nM
29 | Cc1cc(Nc2ccc(C#N)c(C(F)(F)F)c2)n2ncnc2n1 | – | > 10000 | – | IC50 ([1]; PfDHODH, Table 4, IC50 class): 2000 to 10000 nM; IC50 [3]: 2000 to 10000 nM
30 | Cc1cc(Nc2cccc(Cl)c2)n2ncnc2n1 [drawing 35] | – | – | – | IC50 ([1]; PfDHODH, Table 4, IC50 class): < 2000 nM
31 | Cc1cc(Nc2ccccc2Cl)n2ncnc2n1 | > 10000 | > 10000 | – | –
32 | Cc1cc(Nc2ccc(F)cc2)n2ncnc2n1 | > 10000 | > 10000 | – | –
33 | CCc1nc2nc(C)cc(Nc3cccc(C(F)(F)F)c3)n2n1 | – | – | 1170 | –
34 | Cc1cc(Nc2ccc(C(C)(C)C)cc2)n2ncnc2n1 | < 2000 | < 2000 | – | –
35 | Cc1cc(Nc2ccc(-c3ccccc3)cc2)n2ncnc2n1 | 2000 to 10000 | – | – | –
36 | Cc1cc(Nc2cccc(F)c2F)n2ncnc2n1 | > 10000 | > 10000 | – | –
37 | Cc1cc(Nc2ccccc2C(F)(F)F)n2ncnc2n1 | > 10000 | > 10000 | – | –
38 | Cc1cc(Nc2ccc(OC(F)(F)F)cc2)n2ncnc2n1 | < 2000 | – | – | IC50 [3]: > 10000 nM; IC50 ([2]; read-out: PbDHODH): > 10000 nM
39 | CCCc1nc2nc(C)cc(Nc3ccc(C)c(Cl)c3)n2n1 | – | – | 132 | –
40 | Cc1cc(Nc2ccc3[nH]c(C(F)(F)F)nc3c2)n2ncnc2n1 | > 10000 | – | – | IC50 [3]: > 10000 nM; IC50 ([2]; read-out: PbDHODH): > 10000 nM
41 | CCc1nc2nc(C)cc(Nc3ccc(C)c(F)c3)n2n1 | – | – | 66.3 | –
42 | CCc1nc2nc(C)cc(Nc3ccc(Br)cc3F)n2n1 | – | – | 395 | –
43 | Cc1cc(Nc2ccc(I)cc2)n2ncnc2n1 | – | – | 151 | –
44 | CCc1nc2nc(C)cc(Nc3ccc(I)cc3)n2n1 | – | – | 37.9 | –
45 | COc1ccc(Nc2cc(C)nc3ncnn23)cc1Cl | – | – | 362 | –
46 | CCCc1nc2nc(C)cc(Nc3ccc(C)c(F)c3)n2n1 | – | – | 277 | –
47 | CCCCCc1ccc(Nc2cc(C)nc3ncnn23)cc1 | < 2000 | > 10000 | – | –
48 | Cc1cc(Nc2ccc(Cl)c(C(F)(F)F)c2)n2ncnc2n1 | < 2000 | – | – | IC50 ([2]; read-out: PbDHODH): < 2000 nM

Row | Structure (SMILES) | IC50 [1, 4] [nM] | IC50 ([2]; PbDHODH) [nM] | IC50 [1, 5] [nM] | other results
49 | Cc1cc(Nc2ccc([N+](=O)[O-])cc2)n2ncnc2n1 | 2000 to 10000 | 2000 to 10000 | – | –
50 | Cc1cc(Nc2ccc(F)c(F)c2F)n2ncnc2n1 | > 10000 | – | – | IC50 [3]: > 10000 nM; IC50 ([2]; read-out: PbDHODH): > 10000 nM
51 | Cc1cc(Nc2ccc(C)c(F)c2)n2nc(C)nc2n1 | – | – | 629 | –
52 | Cc1cc(Nc2ccc(N(C)C)cc2)n2ncnc2n1 | < 2000 | > 10000 | – | –
53 | Cc1cc(Nc2ccc3c(c2)CCCC3)n2ncnc2n1 | – | – | 50 ± 8 | –
54 | Cc1cc(Nc2ccc(F)c(C)c2)n2ncnc2n1 [drawing 39] | 2000 to 10000 | – | – | IC50 [3]: 2000 to 10000 nM; IC50 ([2]; read-out: PbDHODH): > 10000 nM
55 | CCCCCCc1ccc(Nc2cc(C)nc3ncnn23)cc1 | 2000 to 10000 | > 10000 | – | –
56 | Cc1cc(Nc2cc(F)ccc2F)n2ncnc2n1 | > 10000 | > 10000 | – | –
57 | Cc1cc(Nc2ccc(S(F)(F)(F)(F)F)cc2)n2ncnc2n1 | – | – | 117 ± 10 | –
58 | Cc1cc(Nc2ccc(Br)cc2)n2ncnc2n1 | 2000 to 10000 | > 10000 | – | –
59 | C=Cc1ccc(Nc2cc(C)nc3ncnn23)cc1 | – | 2000 to 10000 | – | –
60 | Cc1cc(Nc2ccc(C#N)cc2)n2ncnc2n1 | 2000 to 10000 | – | – | –
61 | Cc1cc(Nc2ccc3c(c2)CCC3)n2ncnc2n1 | – | – | 116 ± 30 | –
62 | Cc1cc(Nc2ccccc2C)n2ncnc2n1 | > 10000 | > 10000 | – | –
63 | CCCc1nc2nc(C)cc(Nc3cccc(Cl)c3)n2n1 | – | – | 247 | –
64 | Cc1ccc(Nc2cc(C)nc3ncnn23)cc1 | 2000 to 10000 | > 10000 | – | –
65 | CCCCCCCc1ccc(Nc2cc(C)nc3ncnn23)cc1 | > 10000 | > 10000 | – | –
66 | Cc1cc(Nc2ccc(C)c(C)c2)n2nc(C)nc2n1 | – | – | 81.4 | –
67 | Cc1cc(Nc2ccc(C)c(Cl)c2)n2ncnc2n1 | – | – | 240 | –
68 | Cc1cc(Nc2cc(F)c(F)cc2F)n2ncnc2n1 | > 10000 | > 10000 | – | –
69 | Cc1cc(Nc2ccccc2F)n2ncnc2n1 | > 10000 | > 10000 | – | –
70 | Cc1cc(Nc2ccc(Cl)c(C)c2)n2nc(C)nc2n1 | – | – | 1390 | –
71 | Cc1cc(Nc2ccc(Cl)c(Cl)c2)n2nc(C)nc2n1 | – | – | 75.2 | –
